The target in the assay is hNav1.7 (Homo sapiens, UniProt Q15858). The experiment in a line: cell-based. The format is cell-based. The following applies: Table 12; PatchXpress, tonic block; read-out: PX hNav1.7 Tonic IC50.

The results in this text go back to US10344060B2 (priority 2013, dated 2019).

Chain of hNav1.7 (Q15858 whole entry): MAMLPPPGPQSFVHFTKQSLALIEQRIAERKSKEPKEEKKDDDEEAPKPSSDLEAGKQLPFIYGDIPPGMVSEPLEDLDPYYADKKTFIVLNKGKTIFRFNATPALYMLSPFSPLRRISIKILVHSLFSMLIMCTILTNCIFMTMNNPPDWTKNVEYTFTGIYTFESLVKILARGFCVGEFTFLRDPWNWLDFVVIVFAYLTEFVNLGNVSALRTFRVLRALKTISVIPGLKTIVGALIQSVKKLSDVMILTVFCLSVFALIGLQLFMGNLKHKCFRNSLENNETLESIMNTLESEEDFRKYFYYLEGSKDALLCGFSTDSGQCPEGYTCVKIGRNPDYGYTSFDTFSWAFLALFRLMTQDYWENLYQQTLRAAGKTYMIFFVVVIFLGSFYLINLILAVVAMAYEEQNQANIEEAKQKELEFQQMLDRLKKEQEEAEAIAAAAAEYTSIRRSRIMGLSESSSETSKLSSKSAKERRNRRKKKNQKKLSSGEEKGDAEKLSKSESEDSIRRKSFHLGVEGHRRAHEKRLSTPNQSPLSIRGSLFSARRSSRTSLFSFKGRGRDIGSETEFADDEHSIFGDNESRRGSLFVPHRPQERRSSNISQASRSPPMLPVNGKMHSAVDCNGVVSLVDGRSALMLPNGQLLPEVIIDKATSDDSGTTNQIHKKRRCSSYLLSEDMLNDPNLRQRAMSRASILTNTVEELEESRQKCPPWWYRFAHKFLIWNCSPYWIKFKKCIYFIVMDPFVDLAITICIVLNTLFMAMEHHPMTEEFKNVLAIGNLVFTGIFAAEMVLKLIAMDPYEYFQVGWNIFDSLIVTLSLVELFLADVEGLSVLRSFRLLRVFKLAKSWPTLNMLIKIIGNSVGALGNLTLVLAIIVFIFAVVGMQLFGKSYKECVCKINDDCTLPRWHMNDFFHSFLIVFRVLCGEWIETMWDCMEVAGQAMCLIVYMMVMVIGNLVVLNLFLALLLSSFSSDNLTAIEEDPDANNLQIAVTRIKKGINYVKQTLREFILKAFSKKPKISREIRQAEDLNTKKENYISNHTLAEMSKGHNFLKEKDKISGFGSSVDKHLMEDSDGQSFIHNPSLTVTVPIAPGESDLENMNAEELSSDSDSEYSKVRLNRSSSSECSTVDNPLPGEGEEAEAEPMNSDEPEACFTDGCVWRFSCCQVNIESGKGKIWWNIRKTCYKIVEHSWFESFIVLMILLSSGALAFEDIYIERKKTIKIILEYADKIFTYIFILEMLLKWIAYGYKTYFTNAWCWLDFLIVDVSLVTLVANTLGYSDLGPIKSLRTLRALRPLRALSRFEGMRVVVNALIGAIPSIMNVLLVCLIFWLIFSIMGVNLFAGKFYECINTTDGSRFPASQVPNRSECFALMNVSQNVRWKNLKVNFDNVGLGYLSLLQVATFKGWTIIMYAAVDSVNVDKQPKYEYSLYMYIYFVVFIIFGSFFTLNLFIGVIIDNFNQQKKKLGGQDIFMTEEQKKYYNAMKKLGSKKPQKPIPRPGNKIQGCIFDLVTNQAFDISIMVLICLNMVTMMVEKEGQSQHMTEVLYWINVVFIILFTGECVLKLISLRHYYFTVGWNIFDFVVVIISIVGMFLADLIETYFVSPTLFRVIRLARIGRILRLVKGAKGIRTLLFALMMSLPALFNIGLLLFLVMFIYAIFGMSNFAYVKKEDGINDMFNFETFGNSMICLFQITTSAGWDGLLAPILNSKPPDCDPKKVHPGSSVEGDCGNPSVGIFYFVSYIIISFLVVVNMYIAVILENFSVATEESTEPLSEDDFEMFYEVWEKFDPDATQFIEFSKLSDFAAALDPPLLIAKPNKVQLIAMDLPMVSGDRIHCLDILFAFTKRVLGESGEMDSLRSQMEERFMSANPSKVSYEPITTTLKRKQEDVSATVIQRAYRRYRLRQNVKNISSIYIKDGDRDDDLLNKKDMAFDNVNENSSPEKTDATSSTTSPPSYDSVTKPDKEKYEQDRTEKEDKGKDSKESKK

By IC50 is commonly meant the midpoint of a concentration-inhibition curve. On to `C#CC[C@H](N)C(=O)N[C@@H](Cc1ccc(O)cc1)C(=O)N[C@H]1CSSC[C@@H]2NC(=O)[C@@H]3CSSC[C@@H](C(=O)N[C@@H](CCCNC(=N)N)C(=O)N[C@@H](CCCCN)C(=O)N[C@@H](CCC(=O)O)C(=O)N[C@H](C(N)=O)[C@@H](C)CC)NC(=O)[C@H](Cc4c[nH]c5ccccc45)NC(=O)[C@H](CC(C)C)NC(=O)[C@H](CCCCN)NC(=O)[C@H](CSSC[C@H](NC(=O)[C@H]([C@@H](C)O)NC(=O)[C@H](Cc4c[nH]c5ccccc45)NC(=O)[C@H](CCCC)NC(=O)[C@H](Cc4c[nH]c5ccccc45)NC(=O)[C@H](CCCCN)NC(=O)[C@H](CCC(N)=O)NC1=O)C(=O)N[C@@H](CC(=O)O)C(=O)N[C@@H](CO)C(=O)N[C@@H](CCCCN)C(=O)N[C@@H](CCCNC(=N)N)C(=O)N[C@@H](C)C(=O)N3)NC(=O)[C@H](Cc1ccccc1)NC(=O)[C@H](CC(C)C)NC(=O)CNC(=O)[C@H](CCC(=O)O)NC2=O` [compound 686], for which the IC50 was 10.3 nM. As for `C#CC[C@H](N)C(=O)N[C@@H](Cc1ccc(O)cc1)C(=O)N[C@H]1CSSC[C@@H]2NC(=O)[C@@H]3CSSC[C@@H](C(=O)N[C@@H](CCCNC(=N)N)C(=O)N[C@@H](CCCCN)C(=O)N[C@@H](CCC(=O)O)C(=O)N[C@H](C(N)=O)[C@@H](C)CC)NC(=O)[C@H](Cc4c[nH]c5ccccc45)NC(=O)[C@H](CC(C)C)NC(=O)[C@H](CCCCN)NC(=O)[C@H](CSSC[C@H](NC(=O)[C@H]([C@@H](C)O)NC(=O)[C@H](Cc4c[nH]c5ccccc45)NC(=O)[C@H](CCCC)NC(=O)[C@H](Cc4c[nH]c5ccccc45)NC(=O)[C@H](CCCCN)NC(=O)[C@H](CCC(N)=O)NC1=O)C(=O)N[C@@H](CC(=O)O)C(=O)N[C@@H](CO)C(=O)N[C@@H](CCCCN)C(=O)N[C@@H](CCCNC(=N)N)C(=O)N[C@@H](C)C(=O)N3)NC(=O)[C@H](CCCNC(=N)N)NC(=O)[C@H](C)NC(=O)CNC(=O)[C@H](CCC(=O)O)NC2=O` [compound 703], the IC50 was greater than 1000 nM.

As to `C#CC[C@H](N)C(=O)N[C@@H](Cc1ccc(O)cc1)C(=O)N[C@H]1CSSC[C@@H]2NC(=O)[C@@H]3CSSC[C@@H](C(=O)N[C@@H](CCCNC(=N)N)C(=O)N[C@@H](CCCCN)C(=O)N[C@@H](CCC(=O)O)C(=O)N[C@H](C(N)=O)[C@@H](C)CC)NC(=O)[C@H](Cc4c[nH]c5ccccc45)NC(=O)[C@H](CC(C)C)NC(=O)[C@H](CCCCN)NC(=O)[C@H](CSSC[C@H](NC(=O)[C@H]([C@@H](C)O)NC(=O)[C@H](Cc4c[nH]c5ccccc45)NC(=O)[C@H](CCCC)NC(=O)[C@H](Cc4c[nH]c5ccccc45)NC(=O)[C@H](CCCCN)NC(=O)[C@H](CCC(N)=O)NC1=O)C(=O)N[C@@H](CC(=O)O)C(=O)N[C@@H](CO)C(=O)N[C@@H](CCCCN)C(=O)N[C@@H](CCCNC(=N)N)C(=O)N[C@@H](C)C(=O)N3)NC(=O)[C@H](CCCNC(=N)N)NC(=O)[C@H](CCCCN)NC(=O)CNC(=O)[C@H](CCC(=O)O)NC2=O` [compound 704], the IC50 was greater than 1000 nM. Consider `C#CC[C@H](N)C(=O)N[C@@H](Cc1ccc(O)cc1)C(=O)N[C@H]1CSSC[C@@H]2NC(=O)[C@@H]3CSSC[C@@H](C(=O)N[C@@H](CCCNC(=N)N)C(=O)N[C@@H](CCCCN)C(=O)N[C@@H](CCC(=O)O)C(=O)N[C@H](C(N)=O)[C@@H](C)CC)NC(=O)[C@H](Cc4c[nH]c5ccccc45)NC(=O)[C@H](CC(C)C)NC(=O)[C@H](CCCCN)NC(=O)[C@H](CSSC[C@H](NC(=O)[C@H]([C@@H](C)O)NC(=O)[C@H](Cc4c[nH]c5ccccc45)NC(=O)[C@H](CCCC)NC(=O)[C@H](Cc4c[nH]c5ccccc45)NC(=O)[C@H](CCCCN)NC(=O)[C@H](CCC(N)=O)NC1=O)C(=O)N[C@@H](CC(=O)O)C(=O)N[C@@H](CO)C(=O)N[C@@H](CCCCN)C(=O)N[C@@H](CCCNC(=N)N)C(=O)N[C@@H](C)C(=O)N3)NC(=O)[C@H](CCCNC(=N)N)NC(=O)[C@H](CCCNC(=N)N)NC(=O)CNC(=O)[C@H](CCC(=O)O)NC2=O` [compound 705], for which the IC50 is greater than 1000 nM. Then `C#CC[C@H](N)C(=O)N[C@@H](Cc1ccc(O)cc1)C(=O)N[C@H]1CSSC[C@@H]2NC(=O)[C@@H]3CSSC[C@@H](C(=O)N[C@@H](CCCNC(=N)N)C(=O)N[C@@H](CCCCN)C(=O)N[C@@H](CCC(=O)O)C(=O)N[C@H](C(N)=O)[C@@H](C)CC)NC(=O)[C@H](Cc4c[nH]c5ccccc45)NC(=O)[C@H](CC(C)C)NC(=O)[C@H](CCCCN)NC(=O)[C@H](CSSC[C@H](NC(=O)[C@H]([C@@H](C)O)NC(=O)[C@H](Cc4c[nH]c5ccccc45)NC(=O)[C@H](CCCC)NC(=O)[C@H](Cc4c[nH]c5ccccc45)NC(=O)[C@H](CCCCN)NC(=O)[C@H](CCC(N)=O)NC1=O)C(=O)N[C@@H](CC(=O)O)C(=O)N[C@@H](CO)C(=O)N[C@@H](CCCCN)C(=O)N[C@@H](CCCNC(=N)N)C(=O)N[C@@H](C)C(=O)N3)NC(=O)[C@H](CCCNC(=N)N)NC(=O)[C@H](CC(C)C)NC(=O)[C@H](CCC(=O)O)NC(=O)[C@H](CCC(=O)O)NC2=O` [compound 719], with greater than 1000 nM. For `C#CC[C@H](N)C(=O)N[C@@H](Cc1ccc(O)cc1)C(=O)N[C@H]1CSSC[C@@H]2NC(=O)[C@@H]3CSSC[C@@H](C(=O)N[C@@H](CCCNC(=N)N)C(=O)N[C@@H](CCC(=O)O)C(=O)N[C@@H](CCC(=O)O)C(=O)N[C@H](C(N)=O)[C@@H](C)CC)NC(=O)[C@H](Cc4c[nH]c5ccccc45)NC(=O)[C@H](CC(C)C)NC(=O)[C@H](CCCCN)NC(=O)[C@H](CSSC[C@H](NC(=O)[C@H]([C@@H](C)O)NC(=O)[C@H](Cc4c[nH]c5ccccc45)NC(=O)[C@H](CCCC)NC(=O)[C@H](Cc4c[nH]c5ccccc45)NC(=O)[C@H](CCCCN)NC(=O)[C@H](CCC(N)=O)NC1=O)C(=O)N[C@@H](CC(=O)O)C(=O)N[C@@H](CO)C(=O)N[C@@H](CCCCN)C(=O)N[C@@H](CCCNC(=N)N)C(=O)N[C@@H](C)C(=O)N3)NC(=O)[C@H](CCCNC(=N)N)NC(=O)[C@H](CC(C)C)NC(=O)CNC(=O)[C@H](CCC(=O)O)NC2=O` [compound 725], the IC50 was greater than 10000 nM. Then `C#CC[C@H](N)C(=O)N[C@@H](Cc1ccc(O)cc1)C(=O)N[C@H]1CSSC[C@@H]2NC(=O)[C@@H]3CSSC[C@@H](C(=O)N[C@@H](CCCNC(=N)N)C(=O)N[C@@H](CCCCN)C(=O)N[C@@H](CCC(=O)O)C(=O)N[C@H](C(=O)N[C@@H](CCC(=O)O)C(N)=O)[C@@H](C)CC)NC(=O)[C@H](Cc4c[nH]c5ccccc45)NC(=O)[C@H](CC(C)C)NC(=O)[C@H](CCCCN)NC(=O)[C@H](CSSC[C@H](NC(=O)[C@H]([C@@H](C)O)NC(=O)[C@H](Cc4c[nH]c5ccccc45)NC(=O)[C@H](CCCC)NC(=O)[C@H](Cc4c[nH]c5ccccc45)NC(=O)[C@H](CCCCN)NC(=O)[C@H](CCC(N)=O)NC1=O)C(=O)N[C@@H](CC(=O)O)C(=O)N[C@@H](CO)C(=O)N[C@@H](CCCCN)C(=O)N[C@@H](CCCNC(=N)N)C(=O)N[C@@H](C)C(=O)N3)NC(=O)[C@H](CCCNC(=N)N)NC(=O)[C@H](CC(C)C)NC(=O)CNC(=O)[C@H](CCC(=O)O)NC2=O` [compound 726], with 32.4 nM; and `C#CC[C@@H]1NC(=O)[C@@H]2CSSC[C@H](NC(=O)[C@H](CCC(=O)O)NC(=O)[C@@H](N)CC#N)C(=O)N[C@@H](CCC(N)=O)C(=O)N[C@@H](CCCCN)C(=O)N[C@@H](Cc3c[nH]c4ccccc34)C(=O)N[C@@H](CCCC)C(=O)N[C@@H](Cc3c[nH]c4ccccc34)C(=O)N[C@@H]([C@@H](C)O)C(=O)N[C@H]3CSSC[C@H](NC(=O)[C@H](CCCNC(=N)N)NC(=O)[C@H](CC(C)C)NC(=O)CNC1=O)C(=O)N[C@@H](CCCCN)C(=O)N[C@@H](CC(C)C)C(=O)N[C@@H](Cc1c[nH]c4ccccc14)C(=O)N[C@H](C(=O)N[C@@H](CCCNC(=N)N)C(=O)N[C@@H](CCCCN)C(=O)N[C@@H](CCC(=O)O)C(=O)N[C@H](C(N)=O)[C@@H](C)CC)CSSC[C@H](NC(=O)[C@H](CCC(=O)O)NC(=O)[C@H](CCCNC(=N)N)NC(=O)[C@H](CCC(=O)O)NC(=O)[C@H](CO)NC(=O)[C@H](CC(=O)O)NC3=O)C(=O)N2` [compound 756], with greater than 1000 nM. The same measure for `C#CC[C@@H]1NC(=O)[C@@H]2CSSC[C@H](NC(=O)[C@H](CCC(=O)O)NC(=O)[C@@H](N)CC#N)C(=O)N[C@@H](CCC(N)=O)C(=O)N[C@@H](CCCCN)C(=O)N[C@@H](Cc3c[nH]c4ccccc34)C(=O)N[C@@H](CCCC)C(=O)N[C@@H](Cc3c[nH]c4ccccc34)C(=O)N[C@@H]([C@@H](C)O)C(=O)N[C@H]3CSSC[C@H](NC(=O)[C@H](CCCNC(=N)N)NC(=O)[C@H](CC(C)C)NC(=O)CNC1=O)C(=O)N[C@@H](CCCCN)C(=O)N[C@@H](CC(C)C)C(=O)N[C@@H](Cc1c[nH]c4ccccc14)C(=O)N[C@H](C(=O)N[C@@H](CCCNC(=N)N)C(=O)N[C@@H](CCCCN)C(=O)N[C@@H](CCC(=O)O)C(=O)N[C@H](C(N)=O)[C@@H](C)CC)CSSC[C@H](NC(=O)[C@H](CCC(=O)O)NC(=O)[C@H](CCCNC(=N)N)NC(=O)[C@H](CCC(=O)O)NC(=O)[C@H](CCC(=O)O)NC(=O)[C@H](CC(=O)O)NC3=O)C(=O)N2` [compound 757]: greater than 1000 nM; for `C#CC[C@@H]1NC(=O)[C@@H]2CSSC[C@H](NC(=O)[C@H](CCC(=O)O)NC(=O)[C@H](CCC)NC(=O)[C@@H](N)CCC(=O)O)C(=O)N[C@@H](CCC(N)=O)C(=O)N[C@@H](CCCCN)C(=O)N[C@@H](Cc3c[nH]c4ccccc34)C(=O)N[C@@H](CCCC)C(=O)N[C@@H](Cc3c[nH]c4ccccc34)C(=O)N[C@@H]([C@@H](C)O)C(=O)N[C@H]3CSSC[C@H](NC(=O)[C@H](CCCNC(=N)N)NC(=O)[C@H](CC(C)C)NC(=O)CNC1=O)C(=O)N[C@@H](CCCCN)C(=O)N[C@@H](CC(C)C)C(=O)N[C@@H](Cc1c[nH]c4ccccc14)C(=O)N[C@H](C(=O)N[C@@H](CCCNC(=N)N)C(=O)N[C@@H](CCCCN)C(=O)N[C@@H](CCC(=O)O)C(=O)N[C@H](C(N)=O)[C@@H](C)CC)CSSC[C@H](NC(=O)[C@H](C)NC(=O)[C@H](CCCNC(=N)N)NC(=O)[C@H](CCCCN)NC(=O)[C@H](CCC(=O)O)NC(=O)[C@H](CC(=O)O)NC3=O)C(=O)N2` [compound 772]: 15.2 nM.
